The test system of data set [1] is cortical slices. Briefly: in vitro ischemia (oxygen-glucose deprivation/re-oxygenation): glutamate released during re-oxygenation. Type of data set: cell-based. To be noted: rat cortical slices. Here is the method:
(§1) Said in vitro ischemia model is generally accepted as a comprehensive model for the study and selection of products with neuroprotective activity.
Male Sprague-Dawley rats (350-450 g; Charles River Italia, Calco, Italy) have been sacrificed following anaesthesia (i.p. injection of 30 mg/kg ketamine hydrochloride and 8 mg/kg xylazine hydrochloride). The brain is rapidly removed and placed in aCSF (artificial Cerebro Spinal Fluid, composition expressed in mM: 120 NaCl, 2.5 KCl, 1.3 MgCl2, 1.0 NaH2PO4, 1.5 CaCl2, 26 NaHCO3, 11 glucose, saturated with 95% O2 −5% CO2, with a final pH of 7.4, osmolarity 285-290 mOsmol). The cortex is removed and sectioned into slices 400 μm thick.
The slices are then maintained in oxygenated aCSF supplemented with 400 μM ascorbic acid for 1 hour at room temperature.
Cortical slices total weight 33.6±2.6 mg, n=10) are incubated at 37° C., in 2 ml aCSF under a flow of 95% O2/5% CO2 for a period of 30 minutes. Oxygen-glucose deprivation is then implemented for 30 minutes by incubating in aCSF where the glucose has been substituted by sucrose and the oxygen mix air flow replaced with 95% N2/5% CO2. After the period of oxygen-glucose deprivation, the slices are placed in oxygenated aCSF for 90 minutes (re-oxygenation). In the treated samples, the compound of formula I is dissolved in aCSF at the concentrations described.
(§2) Neuronal damage is assessed quantitatively by measuring the glutamate and lactate dehydrogenase (LDH) released into the aCSF during the period of re-oxygenation. In particular, glutamate is measured fluorimetrically (excitation at 366 nm; emission at 450 nm) using the conversion of NAD^+ to NADH catalysed by glutamate dehydrogenase (Eilers et al., 1999) while LDH activity is determined spectrophotometrically by measuring the reduction in absorbance at 340 nm via the oxidation of NADH to NAD^+ (Gay et al., 1968).
All experiments have been conducted using slices obtained from at least 4 different rats. Data is reported as the S.E.M. and “n” is defined as the sample number. Data for glutamate and LDH activity is expressed as nmol/mg tissue and U/mg tissue, respectively. One unit (U) of LDH activity is defined as the correspondent yielding one micromole of lactate in one minute. Statistical analyses have been conducted using ANOVA followed by post-hoc Dunnett tests (GraphPad INSTAT v3.00, GraphPad Software, San Diego, Calif., USA).

The test system of data set [2] is cortical slices. The data set is described as follows: in vitro ischemia (oxygen-glucose deprivation/re-oxygenation): LDH activity released during re-oxygenation. Type of data set: cell-based. To be noted: rat cortical slices, concentrations of 0.1-1 μM. Here is the method: as §1
Male Sprague-Dawley rats (350-450 g; Charles River Italia, Calco, Italy) have been sacrificed following anaesthesia (i.p. injection of 30 mg/kg ketamine hydrochloride and 8 mg/kg xylazine hydrochloride). The brain is rapidly removed and placed in aCSF (artificial Cerebro Spinal Fluid, composition expressed in mM: 120 NaCl, 2.5 KCl, 1.3 MgCl2, 1.0 NaH2PO4, 1.5 CaCl2, 26 NaHCO3, 11 glucose, saturated with 95% O2 −5% CO2, with a final pH of 7.4, osmolarity 285-290 mOsmol). The cortex is removed and sectioned into slices 400 μm thick. […]
as §2
All experiments have been conducted using slices obtained from at least 4 different rats. […] Data for glutamate and LDH activity is expressed as nmol/mg tissue and U/mg tissue, respectively. […]

Experimental findings from patent publication US8420634B2, “Amidine, thiourea and guanidine derivatives of 2-aminobenzothiazoles and aminobenzothiazines for their use as pharmacological agents for the treatment of neurodegenerative pathologies” (Rottapharm S.p.A., priority 2007, dated 2013) are described below.

By melting point is commonly meant the temperature, or range, at which the solid turns liquid.

Where a name gives a salt, the structure may show the parent alone.

Turning to `C/C(=N/c1nc2ccc(OC(F)(F)F)cc2s1)N(C)C` [Example 5, N,N-dimethyl-N′-[6-(trifluoromethoxy)benzothiazol-2-yl]acetamidine], the “reduction in glutamate release” value in the data set on cortical slices [1] (concentrations of 0.1-1 μM) was “remarkable reduction (a reduction in glutamic acid release and/or LDH activity to a value comprised of between 10% and 50% of that of the control sample)”. With `FC(F)(F)Oc1ccc2nc(NC(=S)Nc3ccccc3)sc2c1` [Example 13, 1-Phenyl-3-[6-(trifluoromethoxy)benzothiazol-2-yl]thiourea], the melting point is 234 °C.

In turn, `CCCNC(=S)Nc1nc2ccc(OC(F)(F)F)cc2s1` [Example 10, 1-Propyl-3-[6-(trifluoromethoxy)benzothiazol-2-yl]thiourea] came in with a melting point of 226 to 228 °C. As to `CN/C(C)=N/C1=Nc2ccccc2SC1` [Example 21, N′-(2H-1,4-benzothiazin-3-yl)-N-methylacetamidine], the “reduction in glutamate release” value with cortical slices [1] (concentrations of 0.1-1 μM) was “remarkable reduction (a reduction in glutamic acid release and/or LDH activity to a value comprised of between 10% and 50% of that of the control sample)”.

As to `CN/C(C)=N/C1=Nc2ccccc2CS1` [Example 17, N′-(4H-3,1-benzothiazin-2-yl)-N-methylacetamidine], in the data set on cortical slices [1] (concentrations of 0.1-1 μM), the “reduction in glutamate release” value was “remarkable reduction (a reduction in glutamic acid release and/or LDH activity to a value comprised of between 10% and 50% of that of the control sample)”. For the compound `CCNC(=S)NC1=Nc2ccc(OC(F)(F)F)cc2SC1` [Example 33, 1-Ethyl-3-[7-(trifluoromethoxy)-2H-1,4-benzothiazin-3-yl]thiourea], the melting point was 199 to 201 °C. On to `C/C(=N\C1=Nc2ccccc2SC1)N(C)C` (as salt: oxalate) [Example 22, N′-(2H-1,4-benzothiazin-3-yl)-N,N-dimethylacetamidine], for which the melting point is 120 to 122 °C (dec.).

`CC(C)NC(=S)Nc1nc2ccc(OC(F)(F)F)cc2s1` [Example 11, 1-Isopropyl-3-[6-(trifluoromethoxy)benzothiazol-2-yl]thiourea] displayed a melting point of 242 °C.

As for `CN/C(C)=N/C1=Nc2ccccc2SC1` (as salt: oxalate) [Example 21, N′-(2H-1,4-benzothiazin-3-yl)-N-methylacetamidine], the melting point is 164 to 166 °C (dec.). On to `CCCNC(=S)NC1=Nc2ccc(OC(F)(F)F)cc2CS1` [Example 32, 1-Propyl-3-[6-(trifluoromethoxy)-4H-3,1-benzothiazin-2-yl]thiourea], for which the melting point lay in the range of 148 to 151 °C. Consider `CN/C(C)=N/C1=Nc2ccccc2CS1` (as salt: oxalate) [Example 17, N′-(4H-3,1-benzothiazin-2-yl)-N-methylacetamidine], for which the melting point is 110 to 113 °C (dec.). `CCNC(=S)NC1=Nc2ccc(OC(F)(F)F)cc2CS1` [Example 31, 1-Ethyl-3-[6-(trifluoromethoxy)-4H-3,1-benzothiazin-2-yl]thiourea] returned a melting point of 169 to 172 °C. On to `C/C(=N\C1=Nc2ccccc2CS1)N(C)C` (as salt: oxalate) [Example 18, N′-(4H-3,1-benzothiazin-2-yl)-N,N-dimethylacetamidine], for which the melting point was 154 to 157 °C (dec.). Turning to `CCNC(=S)NC1=Nc2ccccc2CS1` [Example 29, 1-(4H-3,1-benzothiazin-2-yl)-3-ethylthiourea], the melting point lay within 191 to 196 °C. Regarding `CCNC(=S)Nc1nc2ccc(OC(F)(F)F)cc2s1` [Example 9, 1-Ethyl-3-[6-(trifluoromethoxy)benzothiazol-2-yl]thiourea], the melting point lay in the range of 199 to 200 °C. Moreover, the “reduction in LDH activity” value with cortical slices [2] was “remarkable reduction (a reduction in glutamic acid release and/or LDH activity to a value comprised of between 10% and 50% of that of the control sample)”.

The compound `Fc1ccc(NC(=S)Nc2nc3ccc(OC(F)(F)F)cc3s2)cc1` [Example 14, 1-(4-Fluorophenyl)3-[6-(trifluoromethoxy)benzothiazol-2-yl]thiourea] returned a melting point of 207 °C. For `C/C(=N\C1=Nc2ccccc2CS1)N(C)C` [Example 18, N′-(4H-3,1-benzothiazin-2-yl)-N,N-dimethylacetamidine], the “reduction in glutamate release” value in the data set on cortical slices [1] (concentrations of 0.1-1 μM) was “remarkable reduction (a reduction in glutamic acid release and/or LDH activity to a value comprised of between 10% and 50% of that of the control sample)”. Compound `CCCCNC(=S)Nc1nc2ccc(OC(F)(F)F)cc2s1` [Example 12, 1-Butyl-3-[6-(trifluoromethoxy)benzothiazol-2-yl]thiourea] yielded a melting point of 211 °C. For the same compound, the “reduction in glutamate release” value with cortical slices [1] (concentrations of 0.1-1 μM) is “remarkable reduction (a reduction in glutamic acid release and/or LDH activity to a value comprised of between 10% and 50% of that of the control sample)”.

As to `CCCNC(=S)NC1=Nc2ccccc2CS1` [Example 30, 1-(4H-3,1-benzothiazin-2-yl)-3-propylthiourea], the melting point lay in the range of 180 to 184 °C.

Compound `CCCNC(=N)Nc1nc2ccc(OC(F)(F)F)cc2s1` [Example 16, 1-Propyl-3-[6-(trifluoromethoxy)benzothiazol-2-yl]guanidine] came in with a melting point of 110 to 111 °C. The “reduction in glutamate release” value with cortical slices [1] (concentrations of 0.1-10 μM) is “remarkable reduction (a reduction in glutamic acid release and/or LDH activity to a value comprised of between 10% and 50% of that of the control sample)”. `CCNC(=N)Nc1nc2ccc(OC(F)(F)F)cc2s1` [Example 15, 1-Ethyl-3-[6-(trifluoromethoxy)benzothiazol-2-yl]guanidine] came in with a melting point of 127 to 129 °C. Same read-out and setting: the figure for `CCCNC(=S)NC1=Nc2ccc(OC(F)(F)F)cc2SC1` [Example 34, 1-Propyl-3-(7-trifluoromethoxy-2H-1,4-benzothiazin-3-yl)thiourea] is 180 to 182 °C. For `CCN(CC)/C(C)=N/C1=Nc2ccccc2CS1` [Example 19, N′-(4H-3,1-benzothiazin-2-yl)-N,N-diethylacetamidine], the “reduction in glutamate release” value with cortical slices [1] (concentrations of 0.1-1 μM) was “remarkable reduction (a reduction in glutamic acid release and/or LDH activity to a value comprised of between 10% and 50% of that of the control sample)”.
